The values that follow come from patent US9138003B2, “Phosphonates and derivatives thereof as enhancers of the activity of insecticides” (Syngenta Crop Protection Inc., priority 2002, dated 2015).

Where “and” joins values, the source holds several entries; their conditions need not be identical. Equal entries are not always repeated.

Format in all cases: in vivo
For one experiment, the system named is Plutella xylostella. Put plainly: feeding/contact test against Plutella xylostella. The note with it: for % control, Alone: no BEEP; for % control, +BEEP: with 0.5% BEEP. From the text:
The activity of lambda-cyhalothrin, profenofos and indoxacarb combined with 0.5% bis(2-ethylhexyl)-2-ethylhexyl phosphonate (BEEP) was compared with a corresponding formulation containing no bis(2-ethylhexyl)-2-ethylhexyl phosphonate in a feeding/contact test against Plutella xylostella. The results are set out in Table 2 and show % control.

For experiment [1], the system named is L1/L2 Liriomyza huidobriensis, leaf miner. Put plainly: curative control of L1/L2 leaf miner within bean leaves. Conditions: for % control, Alone: no BEEP; for % control, +BEEP: with 0.5% BEEP. From the text: The activity of a range of insecticides combined with 0.5% bis(2-ethylhexyl)-2-ethylhexyl phosphonate (BEEP) was compared with a corresponding formulation containing no bis(2-ethylhexyl)-2-ethylhexyl phosphonate in a test of curative control of L1/L2 Liriomyza huidobriensis, leaf miner. The results are set out in Table 1 and show % control of this leaf miner within bean leaves.

In another experiment the test system is R2 Myzus persicae. As to the kind of experiment: translaminar test (3 day assessment time) against R2 Myzus persicae. Conditions: 0.5% BEEP, no insecticide. An excerpt:
The activity of lambda-cyhalothrin, as Karate 10CS with 0.5% bis(2-ethylhexyl)-2-ethylhexyl phosphonate (BEEP) was compared with a Karate 10CS containing no bis(2-ethylhexyl)-2-ethylhexyl phosphonate in a translaminar test (3 day assessment time) against R2 Myzus persicae. The results are set out in Table 3 and show % control.

Another experiment deals with Aphis gossypii. As to the kind of experiment: translaminar test (3 day assessment time) against Aphis gossypii. Conditions: 0.5% BEOP, no insecticide. An excerpt:
The activity of thiamethoxam as Actara 25WG with bis(2-ethylhexyl) octyl phosphonate (BEOP) at 0.5% was compared with Actara containing no bis(2-ethylhexyl) octyl phosphonate in a translaminar test (3 day assessment time) against Aphis gossypii. The results are set out in Table 4 and show % control.

On to `CC1(C)[C@H](C(=O)O[C@H](C#N)c2cccc(Oc3ccccc3)c2)[C@@H]1/C=C(\Cl)C(F)(F)F` (racemic) [Lambda-cyhalothrin], for which the “% control, Alone” value turned out to be 54% in the experiment on Plutella xylostella (0.31 ppm), 66% with Plutella xylostella (0.63 ppm), 83% in the experiment on Plutella xylostella (1.25 ppm) and 95% in the experiment with Plutella xylostella (2.5 ppm). Also, the “% control, +BEEP” value in the experiment on Plutella xylostella (0.31 ppm), with Plutella xylostella (0.63 ppm), with Plutella xylostella (1.25 ppm) and with Plutella xylostella (2.5 ppm) was 100% in each case.
On to `CCCCC(CC)COP(=O)(CC(CC)CCCC)OCC(CC)CCCC` (stereo not shown) [BEEP, bis(2-ethylhexyl)-2-ethylhexyl phosphonate], for which the “% control, Control +BEEP” value in experiment [1] (0.5% BEEP, no insecticide) was 0%; in the experiment on Plutella xylostella (0.5% BEEP, no insecticide), 11% and 20%; with R2 Myzus persicae, 4%.
With `CCCCCCCCP(=O)(OCC(CC)CCCC)OCC(CC)CCCC` (stereo not shown) [BEOP, bis(2-ethylhexyl) octyl phosphonate], the “% control, Control +BEOP” value with Aphis gossypii was 3%.
Turning to `N#Cc1nn(-c2c(Cl)cc(C(F)(F)F)cc2Cl)c(N)c1[S+]([O-])C(F)(F)F` (stereo not shown) [Fipronil], the “% control, Alone” value in experiment [1] (400 ppm) came to 60%; in experiment [1] (600 ppm), 69%; in experiment [1] (800 ppm) it was 66%; in experiment [1] (1000 ppm), 83%. Also, the “% control, +BEEP” value in experiment [1] (400 ppm), in experiment [1] (600 ppm), in experiment [1] (800 ppm) and in experiment [1] (1000 ppm) was 100% in each case.
Take `COC(=O)N(C(=O)N1CO[C@@]2(C(=O)OC)Cc3cc(Cl)ccc3C2=N1)c1ccc(OC(F)(F)F)cc1` [Indoxacarb]: the “% control, Alone” value is 32% in the experiment with Plutella xylostella (0.16 ppm), 26% with Plutella xylostella (0.31 ppm), 32% in the experiment on Plutella xylostella (0.63 ppm) and 80% in the experiment on Plutella xylostella (1.25 ppm). Further, the “% control, +BEEP” value is 57% in the experiment with Plutella xylostella (0.16 ppm), 80% in the experiment on Plutella xylostella (0.31 ppm), 98% in the experiment on Plutella xylostella (0.63 ppm) and 100% in the experiment on Plutella xylostella (1.25 ppm).
Consider `CCCSP(=O)(OCC)Oc1ccc(Br)cc1Cl` (stereo not shown) [Profenofos], for which the “% control, Alone” value is on record as 16% in the experiment with Plutella xylostella (12.5 ppm), 41% in the experiment with Plutella xylostella (25 ppm), 95% with Plutella xylostella (50 ppm) and 100% in the experiment with Plutella xylostella (100 ppm). In addition, the “% control, +BEEP” value in the experiment on Plutella xylostella (12.5 ppm) was 65%; in the experiment on Plutella xylostella (25 ppm), 95%; with Plutella xylostella (50 ppm), 100%; in the experiment on Plutella xylostella (100 ppm) it was 100%.
Consider `CCOCn1c(-c2ccc(Cl)cc2)c(C#N)c(Br)c1C(F)(F)F` [chlorfenpyr], for which the “% control, Alone” value in experiment [1] (400 ppm) is given as 0%; in experiment [1] (600 ppm), 15%; in experiment [1] (800 ppm), 0%; in experiment [1] (1000 ppm), 28%. In addition, the “% control, +BEEP” value in experiment [1] (400 ppm), in experiment [1] (600 ppm), in experiment [1] (800 ppm) and in experiment [1] (1000 ppm) was 100% each time.
For `Nc1nc(N)nc(NC2CC2)n1` [cypromazine], the “% control, Alone” value in experiment [1] (25 ppm) amounted to 27%; in experiment [1] (50 ppm), 57%; in experiment [1] (100 ppm) it was 81%; in experiment [1] (200 ppm), 100%. Besides, the “% control, +BEEP” value in experiment [1] (25 ppm) is 28%; in experiment [1] (50 ppm), 83%; in experiment [1] (100 ppm) it was 100%; in experiment [1] (200 ppm), 100%.
For the compound `CN1COCN(Cc2cnc(Cl)s2)/C1=N\[N+](=O)[O-]` [thiamethoxam], the “% control, Alone” value in experiment [1] (400 ppm) was found to be 0%; in experiment [1] (600 ppm), 0%; in experiment [1] (800 ppm) it was 0%; in experiment [1] (1000 ppm), 12%. Further, the “% control, +BEEP” value in experiment [1] (400 ppm) came out at 20%; in experiment [1] (600 ppm), 43%; in experiment [1] (800 ppm), 63%; in experiment [1] (1000 ppm) it was 68%.
Abamectin: the “% control, Alone” value is 27% in experiment [1] (3.13 ppm), 48% in experiment [1] (6.25 ppm), 74% in experiment [1] (12.5 ppm) and 96% in experiment [1] (25 ppm). The “% control, +BEEP” value is listed as 99% in experiment [1] (3.13 ppm), 100% in experiment [1] (6.25 ppm), 100% in experiment [1] (12.5 ppm) and 100% in experiment [1] (25 ppm).
With spinosad, the “% control, Alone” value in experiment [1] (400 ppm) was 42%; in experiment [1] (600 ppm), 73%; in experiment [1] (800 ppm), 82%; in experiment [1] (1000 ppm) it was 81%. In addition, the “% control, +BEEP” value in experiment [1] (400 ppm), in experiment [1] (600 ppm), in experiment [1] (800 ppm) and in experiment [1] (1000 ppm) was 100% throughout.
